# Measured values: patent publication US20220390458A1, “FLUORESCENT PROBE AND APPLICATIONS THEREOF” (CENTRE NATIONAL DE LA RECHERCHE SCIENTIFIQUE (CNRS), priority 2019, published 2022)
# Assays:
# [1] = Determination of nanoemulsion (NE) fluidity with DIOLL probe; format: physicochemical
# [2] = DIOLL fluorescence in DMPC liposomes (plate reader, quantification method); format: physicochemical; conditions: 21° C., excitation 390 nm
# Protocol: (§1) Liposomes were prepared using a classical freeze/thaw protocol. Briefly, the appropriate lipid mixture solubilized in chloroform was dried under vacuum, then solubilized with 1 ml buffer under strong agitation. Assays were done either in HEPES 20 mM pH 7.4 buffer 100 mM NaCl or in PBS. The liposome emulsion obtained was submitted to 6 freeze/thaw cycles (5 min in liquid nitrogen/10 min in a water bath at 37° C., 1 minute strong agitation) to decrease the number of bilayers and obtain unilamellar vesicles. To obtain homogenous vesicles, the liposome solution was extruded successively through a 400 nm and 100 nm polycarbonate membrane using an extruder (Avanti Polar Lipids). Liposomes were routinely prepared at lipid concentrations between 1 and 10 mg.ml^−1 and subsequently diluted at the desired concentration. A constant volume of DIOLL solution in ethanol (5 μl) was added in each well to obtain a final DIOLL concentration of 2 μM. The volume of ethanol added represented 2.5% of the final volume and had no effect on liposome integrity. The plate was incubated at room temperature for 10 min. Fluorescence emission spectra were recorded between 420 nm and 600 nm for an excitation wavelength of 390 nm with a TECAN InfiniteM200 plate reader. Spectra were recorded at 21° C.
# [3] = Probe fluorescence intensity in POPC liposomes; format: physicochemical; conditions: 25° C., final concentration 0.2 μM
# [4] = Probe fluorescence in DMPC liposomes as a function of temperature (5 to 65° C.); format: physicochemical; conditions: for maximum emission wavelength, liquid crystalline phase: above phase transition temperature; for maximum emission wavelength, liquid crystalline phase / maximum emission wavelength, gel phase: excitation 385 nm; for maximum emission wavelength, gel phase: below phase transition temperature
# Protocol: Liposomes were prepared in PBS buffer using a classical freeze/though protocol. In brief, lipids dissolved in chloroform were dried under vacuum. The lipid film formed was rehydrated with the PBS solution and agitated until the complete suspension of the lipid film. The vesicle solution was then submitted to 6 freeze/thaw (5 min in liquid nitrogen/10 min in 37° C. water bath) cycles and then extruded 19 times sequentially trough 400 nm and 200 nm polycarbonate membranes (Avanti Polar Lipids Liposome Extruder). The 200 nm liposome suspension was stored at 4° C.
# Fluorescence data was obtained using a Hitachi F4500 fluorometer. Emission spectra were recorded between 420 and 600 nm with an excitation wavelength fixed at 385 nm and 5 nm excitation and emission slits. Ethanol solutions of fluorescent probes were prepared and added to liposomes at a 1:400 (probe: phospholipid) molar ratio. Liposomes were used at a 40 μg.mL^−1 final concentration. Measurements were done at 21° C. for all liposome compositions indicated in Table 2, except for DMPC where a range of temperature from 5 to 65° C. was also applied.
# The spectral shift described above was quantified by calculation of the Generalized Polarization (GP) parameter. This parameter provides a quantitative index of membrane fluidity and is calculated as the difference between fluorescence emission intensity at a 440 nm (lipids with gel properties) and the intensity at 490 nm (wavelength evidenced in lipids with liquid crystal properties), divided by the sum of these two intensities. The GP parameter was thus calculated from fluorescence emission intensities according to the following formula: […]
# where Igel and Ilc are, respectively, intensities of fluorescence at wavelengths characteristic of probe emission, respectively in gel and liquid crystal lipid phases.
# [5] = Probe fluorescence in organic solvents of increasing polarity; format: physicochemical; conditions: 25° C., 2.6 μM probes
# Protocol: Fluorescence measurements were performed with a Hitachi F4500 fluorometer. Excitation and emission slits were fixed at 5 nm and spectra were recorded at 25° C. using a 1 cm path length thermostated quartz micro-cuvette. 0.26 mM solutions of the probes were prepared in a dichloromethane: methanol mixture (3:1 volume ratio). Measurements were performed with […] probes diluted in the different solvents (see Table 1). The initial solvent of the stock solution thus represents 1% of the final volume.
# [6] = tested on: influenza virus membranes; assay: Labeling of viral membranes and GP calculation; conditions: 21° C.; excitation 390 nm
# [7] = DIOLL fluorescence in DPPC liposomes (plate reader, quantification method); format: physicochemical; conditions: 21° C., excitation 390 nm
# Protocol: as §1
# [8] = DIOLL probe fluorescence-based liposome quantification; conditions: POPC liposomes; 21° C.; excitation 390 nm
# Protocol: A POPC solution of known concentration (100 μg.ml^−1) was used as standard. Increasing volumes of the standard solution were diluted with buffer in a 96 well plate (Nunc). The final volume per well was 200 μl and lipid concentrations between 0 and 80 μg.ml^−1 were used. Samples were prepared in parallel to a final volume of 200 μl per well.
# A constant volume of DIOLL solution in ethanol (5 μl) was added in each well to obtain a final DIOLL concentration of 2 μM. The volume of ethanol added represented 2.5% of the final volume and had no effect on liposome integrity. The plate was incubated at room temperature for 10 min. Fluorescence emission spectra were recorded between 420 nm and 600 nm for an excitation wavelength of 390 nm with a TECAN InfiniteM200 plate reader. Spectra were recorded at 21° C.
# The surface under the spectrum was calculated for each condition using an Excel complementary function, IntegralP (www.fordom.free.fr) which allows one to calculate the integral of a function when discrete data sets are available. Maximum fluorescence intensities or surfaces under the curve were plotted as a function of the lipid concentration to obtain the standard curve. […]
# To conclude upon the repeatability of the method, the coefficient of variation (CV) was calculated as the percentage of the standard deviation on the mean of 5 independent measurements. […]
# [9] = carboxylic group; cited from earlier work
# [10] = literature; cited from earlier work
# [11] = cited from earlier work
SMILES,gel over liquid crystalline ratio of fluorescence intensity [4],inflexion point of first derivative of GP vs temperature [4] [°C],"maximum emission wavelength, liquid crystalline phase [4]","maximum emission wavelength, gel phase [4] [nm]",Maximum fluorescence intensity ([5]; Chloroform) [A. U.],λ emission maximum ([5]; Chloroform) [nm],Maximum fluorescence intensity ([5]; DMSO) [A. U.],λ emission maximum ([5]; DMSO) [nm],Maximum fluorescence intensity ([5]; Ethanol) [A. U.],λ emission maximum ([5]; Ethanol) [nm],Maximum fluorescence intensity ([5]; Toluene) [A. U.],λ emission maximum ([5]; Toluene) [nm],"emission maximum, gel phase membranes [10] [nm]","emission maximum, liquid crystalline phase membranes [10] [nm]",also measured
"CCCCCCCCCCCC(=O)c1ccc2cc(N(C)CC(O)CO)ccc2c1 (stereo not shown) [DIOLL, 1-(6-((2,3-dihydroxypropyl)(methyl)amino)naphthalen-2-yl)dodecan-1-one]",0.8,23,490 nm,440,5041,424,9384,441,7647,486,5041,424,–,–,"fluorescence emission peak dissolved in MCT ([1]; 2.6 μM in MCT, single peak): 440 nm; fluorescence emission dissolved in water ([1]; 2.6 μM in water): no fluorescence emission was detected; maximum fluorescence emission [2]: 440 nm; fluorescence intensity, fold higher than that of Laurdan and C-Laurdan [3]: 7 fold; λ emission maximum ([5]; Chloroform, listed as DIOLL probe): 441 nm; λ emission maximum ([5]; DMSO, listed as DIOLL probe): 460 nm; λ emission maximum ([5]; Toluene, listed as DIOLL probe): 425 nm; maximum fluorescence intensity wavelength [6]: 440 nm; maximum fluorescence emission [7]: 440 nm; fluorescence intensity emission maximum [8]: 490 nm"
"CCCCCCCCCCCC(=O)c1ccc2cc(N(C)CC(=O)O)ccc2c1 [C-Laurdan, 6-Dodecanoyl-2-[N-methyl-N-(carboxymethyl)amino] naphthalene]",–,–,–,–,3115,432,2428,450,1491,485,359,416,–,–,pKa [9]: 6.6
"CCCCCCCCCCCC(=O)c1ccc2cc(N(C)C)ccc2c1 [Laurdan, 6-dodecanoyl-2-dimethylaminonaphthalene]",0.6,23,around 490 nm,440,4441,440,5533,460,4221,485,3814,423,440,490,fluorescence emission peak when incubated with NE solution ([1]; single peak): 440 nm; solubility in aqueous buffers [11]: low solubility in aqueous buffers
CCCCN(CCCC)c1ccc2cc(/C=C/c3cc[n+](CC(O)C[N+](C)(C)CCO)cc3)ccc2c1.[Br-].[Br-] (stereo not shown) [Di-4-ANEPPDHQ],–,–,–,–,–,–,–,–,–,–,–,–,560,610,–
